According to patent US20080249129A1, “Compositions and Methods for Treatment of Protein Misfolding Diseases” (priority 2004, published 2008):
Counter-ions that a name gives are not always drawn. Like-named read-outs stand apart in the source and are kept apart here. Peptide text beside a SMILES is read from it.

Assays:
Type in all cases: cell-based
[1] = tested on: yeast expressing two copies of alpha synuclein
Source text: (§1) An exemplary aS-expressing yeast cell for use in a growth rescue screen described herein is yeast expressing two copies of aS, as described in Outeiro et al. (2003) Science 302:1772. An exemplary htt-expressing strain for use in a growth rescue screen described herein is yeast expressing a fusion protein comprising a FLAG tag and an expanded htt polyQ (103) domain, as described in Meriin et al. (2002) J. Cell Biol. 158:591.
(§2) Phenotype MicroArray™ (Biolog, Inc., Hayward, Calif.) was employed to evaluate the effects of various compounds in yeast expressing one or two copies of alpha synuclein.

[2] = tested on: yeast expressing a toxic amount and form of huntingtin
Source text: as §1
(§3) Phenotype MicroArray™ (Biolog, Inc., Hayward, Calif.) was employed to evaluate the ability of various compounds to rescue viability in yeast expressing a toxic amount and form of huntingtin. […] Bioscreen C MBR (Labsystem Corp, Helsinki, Finland) was also used to evaluate the effects of the clioquinols.

[3] = tested on: yeast expressing a toxic amount and form of huntingtin; remark: listed apart in the source
Source text: For example, the Bioscreen-C system (Labsystem Corp, Helsinki, Finland) permits the growth of up to 200 cell cultures at the same time, under different conditions. Growth rates are monitored optically, recorded automatically, and stored as digital files for further manipulations. […] Mutants and chemicals from a variety of sources will be tested.
as §3

[4] = tested on: yeast expressing one copy of alpha synuclein
Source text: as §2

[5] = yeast expressing toxic huntingtin, Phenotype MicroArray
[6] = yeast expressing toxic huntingtin, Bioscreen C MBR
[7] = yeast expressing one copy of alpha synuclein, Phenotype MicroArray
[8] = yeast expressing two copies of alpha synuclein, Phenotype MicroArray

With `CCC(O)C(=O)O` (racemic) [D,L-a-hydroxy-butyric acid] the “effect on alpha synuclein-mediated toxicity” value [1] was “suppressors of alpha synuclein-mediated toxicity”.
`Cc1ccc2c(Cl)cc(Cl)c(O)c2n1` [5,7-Dichloro-8-hydroxy-quinaldine] was tested, and the “effect on huntingtin-mediated toxicity (rescue of viability)” value (“effect … (rescue of viability)” for short) [2, 5] was “suppressors of huntingtin-mediated toxicity” and the “effect on huntingtin-mediated toxicity” value [3, 6] was “alleviated huntingtin-mediated toxicity”.
For `O=[N+]([O-])c1ccc(O)c2ncccc12` [8-Hydroxy-5-nitroquinoline], the “effect … (rescue of viability)” value [2, 5] was “suppressors of huntingtin-mediated toxicity” and the “effect on huntingtin-mediated toxicity” value [3, 6] was “alleviated huntingtin-mediated toxicity”.
For `Oc1cccc2cccnc12` [8-Hydroxyquinoline], the “effect … (rescue of viability)” value [2] was “suppressors of huntingtin-mediated toxicity” and the “effect on huntingtin-mediated toxicity” value [3] was “alleviated huntingtin-mediated toxicity”.
With `CCCCCCCCCCCCC/C=C/[C@@H](O)[C@@H](N)CO` [D-Sphingosine] the “effect on alpha synuclein-mediated toxicity” value [4, 7] was “enhancers of alpha synuclein-mediated toxicity”.
`CC[C@H](C)[C@H](N)C(=O)O` [L-Isoleucine] was tested, and the “effect on alpha synuclein-mediated toxicity” value [4, 7] was “enhancers of alpha synuclein-mediated toxicity”.
`CSCC[C@H](NC(=O)[C@@H](N)Cc1ccccc1)C(=O)O` [Phe-Met] (H-Phe-Met-OH) was tested, and the “effect on alpha synuclein-mediated toxicity” value [4, 7] was “enhancers of alpha synuclein-mediated toxicity”.
With `COc1ccc(C[C@H]2NC[C@H](O)[C@H]2OC(C)=O)cc1` [anisomycin] the “effect on alpha synuclein-mediated toxicity” value [4, 7] was “enhancers of alpha synuclein-mediated toxicity”.
`CC1=C(C(=O)Nc2ccccc2)SCCO1` [carboxin] was tested, and the “effect on alpha synuclein-mediated toxicity” value [4, 7] was “enhancers of alpha synuclein-mediated toxicity”.
With `COc1ccc2c(c[n+](C)c3c4cc5c(cc4ccc23)OCO5)c1OC` [chelerythrine] the “effect on alpha synuclein-mediated toxicity” value [4, 7] was “enhancers of alpha synuclein-mediated toxicity”.
In the case of `CN(C)C(=O)/N=N/C(=O)N(C)C` [diamide], the “effect on alpha synuclein-mediated toxicity” value [4, 7] is reported as “enhancers of alpha synuclein-mediated toxicity”.
For `OP(O)(=S)S` [dithiophosphate], the “effect on alpha synuclein-mediated toxicity” value [4, 7] was “enhancers of alpha synuclein-mediated toxicity”.
For `CCCCCCCCCCCC[N+](C)(C)C.[Br-]` [dodecyltrimethyl ammonium bromide], the “effect on alpha synuclein-mediated toxicity” value [4, 7] was “enhancers of alpha synuclein-mediated toxicity”.
In the case of `N=C(N)N` [guanidine hydrochloride], the “effect … (rescue of viability)” value [2, 5] is reported as “suppressors of huntingtin-mediated toxicity”.
With `Oc1c(Cl)cc(Cl)c(Cl)c1Cc1c(O)c(Cl)cc(Cl)c1Cl` [hexachlorophene] the “effect on alpha synuclein-mediated toxicity” value [1] was “suppressors of alpha synuclein-mediated toxicity”.
With `CC(C)Cc1ccc(C(C)C(=O)O)cc1` (stereo not drawn) [ibuprofen] the “effect on alpha synuclein-mediated toxicity” value [1] was “suppressors of alpha synuclein-mediated toxicity”.
In the case of `Cc1cccc(O)c1` [m-cresol], the “effect on alpha synuclein-mediated toxicity” value [1, 8] is reported as “suppressors of alpha synuclein-mediated toxicity” and the “effect … (rescue of viability)” value [2, 5] is reported as “suppressors of huntingtin-mediated toxicity”.
For `CC[C@@]1([C@@H]2O[C@@H]([C@H]3O[C@@](O)(CO)[C@H](C)C[C@@H]3C)C[C@@H]2C)CC[C@H]([C@]2(C)CC[C@]3(C[C@H](O)[C@@H](C)[C@@H]([C@@H](C)[C@@H](OC)[C@H](C)C(=O)O)O3)O2)O1` [monensin], the “effect on alpha synuclein-mediated toxicity” value [4, 7] was “enhancers of alpha synuclein-mediated toxicity”.
`CC(Cc1ccc(O)c(O)c1)C(C)Cc1ccc(O)c(O)c1` (stereo not drawn) [nordihydroguaiaretic acid] was tested, and the “effect on alpha synuclein-mediated toxicity” value [1] was “suppressors of alpha synuclein-mediated toxicity” and the “effect … (rescue of viability)” value [2] was “suppressors of huntingtin-mediated toxicity”.
In the case of `CC1=C(C(=O)Nc2ccccc2)S(=O)(=O)CCO1` [oxycarboxin], the “effect on alpha synuclein-mediated toxicity” value [4, 7] is reported as “enhancers of alpha synuclein-mediated toxicity”.
For `CC1=CC(=O)c2c(O)cccc2C1=O` [plumbagin], the “effect on alpha synuclein-mediated toxicity” value [4, 7] was “enhancers of alpha synuclein-mediated toxicity”.
With `O=C([O-])c1ccccc1.[Na+]` [sodium benzoate pH 5.2, sodium benzoate] the “effect on alpha synuclein-mediated toxicity” value [4, 7] was “enhancers of alpha synuclein-mediated toxicity”.
For `O=[Si]([O-])[O-].[Na+].[Na+]` [sodium metasilicate], the “effect on alpha synuclein-mediated toxicity” value [1, 8] was “suppressors of alpha synuclein-mediated toxicity”.
For `O=S([O-])([O-])=S.[Na+].[Na+]` [sodium thiosulfate], the “effect on alpha synuclein-mediated toxicity” value [4] was “enhancers of alpha synuclein-mediated toxicity”.
In the case of `OP(O)(O)=S` [thiophosphate], the “effect on alpha synuclein-mediated toxicity” value [4, 7] is reported as “enhancers of alpha synuclein-mediated toxicity”.
In the case of ruthenium red, the “effect on alpha synuclein-mediated toxicity” value [1, 8] is reported as “suppressors of alpha synuclein-mediated toxicity”.
With sodium metavanadate the “effect on alpha synuclein-mediated toxicity” value [1] was “suppressors of alpha synuclein-mediated toxicity”.
“sodium phosphate [sodium phosphate pH 7]” was tested, and the “effect on alpha synuclein-mediated toxicity” value [4] was “enhancers of alpha synuclein-mediated toxicity”.
